Two compounds from patent publication US20060063736A1, “Compositions and methods for inhibiting mucin-type O-linked glycosylation” (priority 2004, published 2006) can be followed below.

The target in one experiment is T1, mppGalNAcT-3 (Mus musculus, UniProt P70419).
T1 construct: plasmids encoding truncated secreted ppGalNAcTs-1 to −5, -7, -10 and -11; made in house; host or cells: COS-7
T1 sequence (P70419 38-633 limits assumed): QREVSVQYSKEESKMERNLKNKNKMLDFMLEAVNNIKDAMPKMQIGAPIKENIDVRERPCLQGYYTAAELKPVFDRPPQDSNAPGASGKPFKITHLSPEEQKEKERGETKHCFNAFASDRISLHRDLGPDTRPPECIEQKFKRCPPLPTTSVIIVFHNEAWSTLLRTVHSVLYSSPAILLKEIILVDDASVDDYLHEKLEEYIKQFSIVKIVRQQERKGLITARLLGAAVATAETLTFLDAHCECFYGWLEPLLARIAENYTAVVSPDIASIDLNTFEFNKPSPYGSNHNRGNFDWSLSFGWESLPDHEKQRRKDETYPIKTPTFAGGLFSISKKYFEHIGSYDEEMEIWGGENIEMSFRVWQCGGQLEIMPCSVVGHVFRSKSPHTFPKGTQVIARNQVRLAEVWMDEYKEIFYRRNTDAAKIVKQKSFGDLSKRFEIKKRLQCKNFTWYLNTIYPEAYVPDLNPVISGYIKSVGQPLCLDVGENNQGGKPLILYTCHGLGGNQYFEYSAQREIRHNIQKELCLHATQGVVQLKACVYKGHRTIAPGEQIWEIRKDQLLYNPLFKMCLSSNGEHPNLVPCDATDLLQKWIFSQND
Nature of the experiment: ELLA for ppGalNAcTs, mppGalNAcT-3. The experiment is classed as biochemical, murine. The note with it: 20 μM UDP-GalNAc, 50 μM EA2 peptide 4. The method, then: (§1) COS-7 cells were transiently transfected with plasmids encoding truncated secreted ppGalNAcTs-1 to −5, -7, -10 and -11 as previously described. Hagen et al. (1997) J. Biol. Chem. 272:13843-13848. The crude conditioned medium was used as the enzyme source.
(§2) Standard reaction conditions for ppGalNAcT assays were as follows. The reaction mixture contained the following components in a final volume of 25 μL: 10 mM MnCl2, 40 mM sodium cacodylate, 40 mM β-mercaptoethanol, 0.1% Triton X-100, pH 6.5, 5 μL of conditioned media, and various concentrations of EA2 peptide 4, UDP-GalNAc and inhibitor. All uridine-based compounds were dissolved in dimethyl sulfoxide (DMSO). […] Reaction rates were linear over the period monitored (20-30 min).
(§3) 96-Well NeutrAvidin-coated plates were prewashed 3 times with 200 μL of wash buffer (25 mM Tris, 150 mM NaCl, 0.1% bovine serum albumin (BSA) (w/v), and 0.05% Tween (v/v), pH 7.2). […] After 3 washes with 200 μL of PBS, bound HPA-HRP was quantified by the addition of 100 μL of TMB peroxide solution. […] HRP activity was terminated by the addition of 50 μL of 2 N H2SO4 and the resulting solution was analyzed at 450 nm using a UV/Vis microtiter plate reader. The amount of product generated by the ppGalNAcT was extrapolated from absorbance values using an equation fit to the standard curve derived from Origin 6.1 software.

A further experiment deals with T2, mppGalNAcT-4 (Mus musculus, UniProt O08832).
T2 construct: plasmids encoding truncated secreted ppGalNAcTs-1 to −5, -7, -10 and -11; made in house; host or cells: COS-7
T2 sequence (O08832 36-578 limits assumed): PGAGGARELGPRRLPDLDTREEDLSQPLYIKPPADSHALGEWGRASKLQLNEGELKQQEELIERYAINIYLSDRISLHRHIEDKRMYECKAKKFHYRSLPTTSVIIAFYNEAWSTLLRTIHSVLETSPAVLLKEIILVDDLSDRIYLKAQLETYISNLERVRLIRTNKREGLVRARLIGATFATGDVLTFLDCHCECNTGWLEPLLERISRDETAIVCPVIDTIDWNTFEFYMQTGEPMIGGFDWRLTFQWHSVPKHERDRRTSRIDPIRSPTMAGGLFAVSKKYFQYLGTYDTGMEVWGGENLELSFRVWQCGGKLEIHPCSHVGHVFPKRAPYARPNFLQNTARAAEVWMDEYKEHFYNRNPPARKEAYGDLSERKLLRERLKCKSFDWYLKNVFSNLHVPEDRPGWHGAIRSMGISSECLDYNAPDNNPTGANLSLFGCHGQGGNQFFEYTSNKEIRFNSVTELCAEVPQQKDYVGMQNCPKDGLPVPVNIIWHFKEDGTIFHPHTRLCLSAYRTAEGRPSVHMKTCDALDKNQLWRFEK
The experiment in a line: ELLA for ppGalNAcTs, mppGalNAcT-4. The experiment is classed as biochemical, murine. Particulars: 20 μM UDP-GalNAc, 50 μM EA2 peptide 4. The method, then:
as §1, §2, §3

The subject of the next experiment is Jurkat cells. Nature of the experiment: Annexin-V staining of Jurkat cells (apoptosis). In kind it is cell-based, human. The note with it: 2 d treatment. The method, then:
Jurkat cells were seeded at 250,000 cells/well (determined by Coulter cell counter) in 12-well polystyrene tissue culture plates in 1.0 mL of media and treated with various concentrations of 1-68A or 2-68A from 50 mM dimethyl sulfoxide (DMSO) stock solutions or doxorubicin or campothecin from 1 mM DMSO stock solutions. After 2 d, cells were harvested, washed twice with PBS buffer (PBS, pH 7.4, 0.1% FCS, 0.1% NaN3 w/v) and stained with FITC-HPA (1 μg/mL) or FITC-Con A (5 μg/mL with 1 mM CaCl2) in PBS, pH 7.4 in the dark for 1 h at 4° C. Cells were washed twice with PBS buffer, resuspended in 300 μL of PBS buffer and analyzed by flow cytometry (FacsCaliber, BD Instruments). Annexin-V staining was performed according to the manufacturer's protocols (Invitrogen).
To directly monitor ppGalNAcT activities in cells, Jurkat cells (human T-cell lymphoma), which are known to produce only the Tn-antigen (FIG. 1) as their O-linked glycans, were chosen. Piller et al. (1990) J. Biol. Chem. 265:9264-9271. Changes in Tn-antigen expression on the surface of Jurkat cells were monitored by HPA binding followed by flow cytometry analysis. Con A staining of N-linked glycans was used as a control for non-specific inhibition of protein glycosylation. Baenziger and Fiete (1979) J. Biol. Chem. 254:2400-2407.

For the compound `O=c1ccn([C@@H]2O[C@H](CON=Cc3ccc(O)c(O)c3O)[C@@H](O)[C@H]2O)c(=O)[nH]1` [1-68A], the IC50 at mppGalNAcT-3 is 40 ± 2 µM; against mppGalNAcT-4, 30 ± 5 µM. In addition, the “Annexin-V staining (induction of apoptosis)” value in the experiment with Jurkat cells is listed as “confirmed the induction of apoptosis”.

As to `O=C(CON=Cc1ccc(O)c(O)c1O)NC[C@H]1O[C@@H](n2ccc(=O)[nH]c2=O)[C@H](O)[C@@H]1O` [2-68A], the values for the IC50 against mppGalNAcT-3 and on mppGalNAcT-4 were 38 ± 4 µM and 20 ± 5 µM, respectively. For the same compound, in the experiment with Jurkat cells, the “Annexin-V staining (induction of apoptosis)” value is given as “confirmed the induction of apoptosis”.
